The values that follow come from PubChem BioAssay AID220 (DTP/NCI, 2004).

Several values for one entry are separate records, joined by “and”; a condition that tells them apart may be missing. Equal values may be shown once. Results filed as inconclusive are left out.

For the experiment, the system named is CD8F1 mice, subcutaneous mammary adenocarcinoma, T/C%. The experiment can be described thus: NCI In Vivo Anticancer Drug Screen. Data for tumor model Mammary Adenocarcinoma CD8F1 (subcutaneous) in CD8F1. The settings on record: higher = larger tumour. The gist of the method:
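Mice carrying transplanted tumors received test compound, and survival or tumor size was recorded. Each value is the treated-group measurement divided by the corresponding measurement in vehicle-dosed controls.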

The mark [1] stands for this setting: endpoint: median tumor weight (est.), dose: 12.5 mg/kg/injection, schedule: Q07DX005 (ip), vehicle: saline with Tween-80.
[2] abbreviates: endpoint: median tumor weight (est.), dose: 50.0 mg/kg/injection, schedule: Q07DX005 (ip), vehicle: saline with Tween-80.
[3] abbreviates: endpoint: median tumor weight (est.), dose: 100.0 mg/kg/injection, schedule: Q07DX005 (ip), vehicle: saline.

Take `OCCOCC(F)(F)F`: the T/C is 57 % of control under setting [1]; 102 % of control and 106 % of control (endpoint: median tumor weight (est.), dose: 25.0 mg/kg/injection, schedule: Q07DX005 (ip), vehicle: saline with Tween-80); 97 % of control and 104 % of control under setting [2]; 67 % of control (endpoint: median tumor weight (est.), dose: 200.0 mg/kg/injection, schedule: Q07DX005 (ip), vehicle: saline with Tween-80); 70 % of control (endpoint: median tumor weight (est.), dose: 800.0 mg/kg/injection, schedule: Q07DX005 (ip), vehicle: saline with Tween-80).
In the case of `COC1C(O)CC(OC2CC(Oc3cc4cc5c(c(O)c4c(O)c3C)C(=O)[C@@H](OC3CC(OC4CC(OC6CC(C)(O)C(OC(C)=O)C(C)O6)C(O)C(C)O4)C(O)C(C)O3)[C@H]([C@H](OC)C(=O)[C@@H](O)[C@@H](C)O)C5)OC(C)C2OC(C)=O)OC1C` (stereo partly specified), the T/C is, setting by setting: (endpoint: median tumor weight (est.), dose: 0.04 mg/kg/injection, schedule: Q07DX005 (ip), vehicle: saline) 46 % of control; (endpoint: median tumor weight (est.), dose: 0.09 mg/kg/injection, schedule: Q07DX005 (ip), vehicle: saline) 93 % of control; (endpoint: median tumor weight (est.), dose: 0.36 mg/kg/injection, schedule: Q07DX005 (ip), vehicle: saline) 70 % of control; (endpoint: median tumor weight (est.), dose: 0.72 mg/kg/injection, schedule: Q07DX005 (ip), vehicle: saline) 76 % of control and 92 % of control; (endpoint: median tumor weight change, dose: 0.25 mg/kg/injection, schedule: Q01DX001 (ip), vehicle: saline) 63 % of control; (endpoint: median tumor weight change, dose: 0.5 mg/kg/injection, schedule: Q01DX001 (ip), vehicle: saline) 42 % of control. Further, the T/C (endpoint: median tumor weight change, dose: 1.0 mg/kg/injection, schedule: Q01DX001 (ip), vehicle: saline) was 44 % of control.
`O=c1cc(-c2ccccc2)[nH]c2c1CCCC2`: the T/C (endpoint: median tumor weight change, dose: 1000.0 mg/kg/injection, schedule: Q01DX001 (ip), vehicle: saline with Tween-80) was 78 % of control.
For the compound `CCCCCCCC(=O)[O][Hg][CH2]C1COC([CH2][Hg][O]C(=O)CCCCCCC)CO1` (stereo unspecified), the T/C reads like this: (endpoint: median tumor weight (est.), dose: 3.0 mg/kg/injection, schedule: Q07DX005 (ip), vehicle: saline with Tween-80) 90 % of control; (endpoint: median tumor weight (est.), dose: 6.0 mg/kg/injection, schedule: Q07DX005 (ip), vehicle: saline with Tween-80) 95 % of control; (endpoint: median tumor weight (est.), dose: 6.25 mg/kg/injection, schedule: Q07DX005 (ip), vehicle: saline with Tween-80) 100 % of control; (endpoint: median tumor weight (est.), dose: 12.0 mg/kg/injection, schedule: Q07DX005 (ip), vehicle: saline with Tween-80) 80 % of control; under setting [1], 50 % of control; under setting [2], 100 % of control.
With `NC(=O)c1ncn(C2OC(CO)C(O)C2O)n1` (stereo unspecified), the T/C was 120 % of control (endpoint: mean tumor weight, dose: 12.5 mg/kg/injection, schedule: Q07DX006 (ip), vehicle: saline); 288 % of control (endpoint: mean tumor weight, dose: 25.0 mg/kg/injection, schedule: Q07DX006 (ip), vehicle: saline); 60 % of control (endpoint: mean tumor weight, dose: 50.0 mg/kg/injection, schedule: Q07DX006 (ip), vehicle: saline); 35 % of control (endpoint: mean tumor weight, dose: 100.0 mg/kg/injection, schedule: Q07DX006 (ip), vehicle: saline); 41 % of control (endpoint: mean tumor weight, dose: 200.0 mg/kg/injection, schedule: Q07DX006 (ip), vehicle: saline); 27 % of control (endpoint: mean tumor weight, dose: 400.0 mg/kg/injection, schedule: Q07DX006 (ip), vehicle: saline). Further, the T/C is, setting by setting: (endpoint: median tumor weight (est.), dose: 12.5 mg/kg/injection, schedule: Q07DX005 (ip), vehicle: saline) 118 % of control; (endpoint: median tumor weight (est.), dose: 25.0 mg/kg/injection, schedule: Q07DX005 (ip), vehicle: saline) 165 % of control; (endpoint: median tumor weight (est.), dose: 50.0 mg/kg/injection, schedule: Q07DX005 (ip), vehicle: saline) 97 % of control; under setting [3], 102 % of control; (endpoint: median tumor weight (est.), dose: 200.0 mg/kg/injection, schedule: Q07DX005 (ip), vehicle: saline) 46 % of control; (endpoint: median tumor weight (est.), dose: 400.0 mg/kg/injection, schedule: Q07DX005 (ip), vehicle: saline) 48 % of control.
Regarding `O=C(CCBr)N1CCN(C(=O)CCBr)CC1`, the T/C by setting is: (endpoint: median tumor weight (est.), dose: 10.0 mg/kg/injection, schedule: Q07DX005 (ip), vehicle: Klucel (hydroxypropylcellulose) (HPC)) 94 % of control; (endpoint: median tumor weight (est.), dose: 20.0 mg/kg/injection, schedule: Q07DX005 (ip), vehicle: Klucel (hydroxypropylcellulose) (HPC)) 53 % of control; (endpoint: median tumor weight (est.), dose: 40.0 mg/kg/injection, schedule: Q07DX005 (ip), vehicle: Klucel (hydroxypropylcellulose) (HPC)) 67 % of control; (endpoint: median tumor weight (est.), dose: 80.0 mg/kg/injection, schedule: Q07DX005 (ip), vehicle: Klucel (hydroxypropylcellulose) (HPC)) 42 % of control; (endpoint: median tumor weight (est.), dose: 160.0 mg/kg/injection, schedule: Q07DX005 (ip), vehicle: Klucel (hydroxypropylcellulose) (HPC)) 19 % of control; (endpoint: median tumor weight (est.), dose: 320.0 mg/kg/injection, schedule: Q07DX005 (ip), vehicle: Klucel (hydroxypropylcellulose) (HPC)) 6 % of control.
Turning to `CC(=O)c1cccc(NC2C(N)C(NC(=O)N(C)C)(C(C)O)C(C)(O)C2(O)COC(=O)c2c(C)cccc2O)c1` (stereo unspecified), the T/C was 162 % of control (endpoint: median tumor weight (est.), dose: 1.0 mg/kg/injection, schedule: Q07DX005 (ip), vehicle: suspension in saline); 67 % of control and 77 % of control (endpoint: median tumor weight (est.), dose: 1.8 mg/kg/injection, schedule: Q07DX005 (ip), vehicle: saline with Tween-80); 78 % of control (endpoint: median tumor weight (est.), dose: 2.0 mg/kg/injection, schedule: Q07DX005 (ip), vehicle: suspension in saline); 72 % of control and 93 % of control (endpoint: median tumor weight (est.), dose: 3.6 mg/kg/injection, schedule: Q07DX005 (ip), vehicle: saline with Tween-80); 78 % of control (endpoint: median tumor weight (est.), dose: 4.0 mg/kg/injection, schedule: Q07DX005 (ip), vehicle: suspension in saline); 55 % of control and 78 % of control (endpoint: median tumor weight (est.), dose: 7.2 mg/kg/injection, schedule: Q07DX005 (ip), vehicle: saline with Tween-80). Further, the T/C by setting is: (endpoint: median tumor weight (est.), dose: 8.0 mg/kg/injection, schedule: Q07DX005 (ip), vehicle: suspension in saline) 119 % of control; (endpoint: median tumor weight (est.), dose: 14.4 mg/kg/injection, schedule: Q07DX005 (ip), vehicle: saline with Tween-80) 23 % of control and 44 % of control.
For the compound `C#CCNC1=C(C)C(=O)C2=C(C1=O)[C@H](COC(N)=O)[C@]1(OC)[C@@H]3N[C@@H]3CN21`, the T/C by setting is: (endpoint: median tumor weight change, dose: 16.0 mg/kg/injection, schedule: Q01DX001 (ip), vehicle: distilled water + Tween-80) 75 % of control; (endpoint: median tumor weight change, dose: 31.0 mg/kg/injection, schedule: Q01DX001 (ip), vehicle: distilled water + Tween-80) 27 % of control.
`Nc1nc2nc[nH]c2c(=O)[nH]1`: the T/C is, setting by setting: (endpoint: median tumor weight (est.), dose: 25.0 mg/kg/injection, schedule: Q07DX005 (ip), vehicle: suspension in saline) 73 % of control; (endpoint: median tumor weight (est.), dose: 50.0 mg/kg/injection, schedule: Q07DX005 (ip), vehicle: suspension in saline) 73 % of control; (endpoint: median tumor weight (est.), dose: 100.0 mg/kg/injection, schedule: Q07DX005 (ip), vehicle: suspension in saline) 69 % of control; (endpoint: median tumor weight (est.), dose: 200.0 mg/kg/injection, schedule: Q07DX005 (ip), vehicle: suspension in saline) 73 % of control.
For the compound `O=NN(CCF)C(=O)NC1CCCCC1`, the T/C by setting is: (endpoint: median tumor weight change, dose: 4.0 mg/kg/injection, schedule: Q01DX001 (ip), vehicle: Klucel (hydroxypropylcellulose) (HPC)) 87 % of control; (endpoint: median tumor weight change, dose: 16.0 mg/kg/injection, schedule: Q01DX001 (ip), vehicle: Klucel (hydroxypropylcellulose) (HPC)) 44 % of control; (endpoint: median tumor weight change, dose: 31.0 mg/kg/injection, schedule: Q01DX001 (ip), vehicle: Klucel (hydroxypropylcellulose) (HPC)) 45 % of control; (endpoint: median tumor weight change, dose: 62.5 mg/kg/injection, schedule: Q01DX001 (ip), vehicle: Klucel (hydroxypropylcellulose) (HPC)) 30 % of control.
Take `C[C@@H]1C[C@@H]([C@H](O)CC2CC(=O)NC(=O)C2)C(=O)[C@@H](C)C1`: the T/C was 57 % of control (endpoint: median tumor weight change, dose: 62.5 mg/kg/injection, schedule: Q01DX001 (ip), vehicle: suspension in saline); 72 % of control (endpoint: median tumor weight change, dose: 125.0 mg/kg/injection, schedule: Q01DX001 (ip), vehicle: suspension in saline); 57 % of control (endpoint: median tumor weight change, dose: 250.0 mg/kg/injection, schedule: Q01DX001 (ip), vehicle: suspension in saline).
With `CC1(C)N=C(N)N=C(N)N1c1ccc(F)c(C(F)(F)F)c1`, the T/C is 97 % of control (endpoint: median tumor weight (est.), dose: 6.25 mg/kg/injection, schedule: Q07DX005 (ip), vehicle: saline) and 61 % of control under setting [3].
In the case of `C[CH2][Sn]([CH2]C)([CH2]C(=O)OC)[CH2]C(=O)OC`, for the setting “endpoint: median tumor weight change, dose: 16.0 mg/kg/injection, schedule: Q01DX001 (ip), vehicle: saline with Tween-80”, the T/C was 78 % of control.
